Source: patent US4684650A, “Antihypertensive fluorophenylindanyl imidazolidinoneethylpiperazines” (priority 1984, dated 1987)
Like-named read-outs stand apart in the source and are kept apart here.

Key:
[1] = tested on: methylphenidate induced stereotypies; assay: Methylphenidate Antagonism; assay type: in vivo, mice; conditions: for ED50: Mus musculus, ip, read-out: MePh antg. ED50, i.p., mice, 2 hours before methylphenidate 60 mg/kg s.c.; for MePh antg. ED50: i.p., mice, 2 hours before methylphenidate 60 mg/kg s.c.
Experimental: The experiments were made as described by Pedersen and Christensen (1972) Acta Pharmacol. et Toxicol. 31, 488-496.--Briefly, test compounds or saline were injected i.p. 2 hours before methylphenidate, 60 mg/kg s.c. 3 pairs of mice were used for each dose level. After methylphenidate injection the mice were placed in observation cages for one hour. The cages were placed on corrugated paper, the corrugation facing upwards.

[2] = tested on: spontaneous hypertensive rats (SHR); assay: Antihypertensive effect in spontaneous hypertensive rats (SHR); assay type: in vivo; conditions: for change in vivo at 5 mg/kg / ED10: Rattus norvegicus, ip; for change in vivo at 5 mg/kg: 1 h
Experimental: Antihypertensive effect in spontaneous hypertensive rats (SHR)
The femoral artery of male SHR is cannulated in anaestesia for blood pressure recordings. After a stabilization period of 11/2 h after discontinuation of the anaesthesia initial blood pressure curves are recorded and the systolic (SAP)/diastolic (DAP) pressure determined (-20, -10, 0, min. p.i.) Test substance is injected i.p. and the pressure curve recorded for one hour. The change in SAP/DAP is calculated in percent at mean initial values at different times (10, 20, 30, 40, 50 and 60 minutes after injection). At least two SHR are used per dose level. The maximum change is used for estimation of the drug effect.

[3] = tested on: 1-5-HTP-induced head shakes; assay: 1-5-HTP-induced head shakes; assay type: in vivo; conditions: rats, 1-5-HTP 75 mg/kg i.p. after citalopram; for ED50: Rattus norvegicus, sc, read-out: 1-5-HTP-antg. ED50
Experimental: The rats were pretreated subcutaneously with test compound or saline simultaneously with or 90 min before injection of citalopram (10 mg/kg s.c.).
Each group consisted of 4-12 rats.

[4] = tested on: phenylephrine pressor responses; assay: Antagonism to phenylephrine pressor responses in pithed rats; assay type: in vivo; conditions: for change in vivo at […] / ED50: Rattus norvegicus, iv; for change in vivo at […]: read-out: Effects on pressor response of Phenylephrine, % eff. of […], pithed rats, […], jugular vein, read-out: Effects on pressor response of Phenylephrine, % eff. of 0.31 mg/kg; for ED50: read-out: Effects on pressor response of Phenylephrine, ED50
Experimental: (§1) The rat is anaesthetized with ether, tracheotomized, artificial respired and pithed. The knitting-needle is introduced through the right orbita into the cranial cavity and passed through foramen magnum into the spinal canal as far as possible. The spinal cord is destroyed by turning the needle. After vagotomi both carotides are ligated and a catheter placed in the right one for pressure recording. The rat is adrenalectomized. […] The initial and post medication mean pressor effect is calculated, and the mean pressor effect is calculated as % of the initial value. Two to five preparations are employed for each dose level. The ED50 is determined.

5-HT pressor responses = assay: Antagonism to 5-HT pressor responses in pithed rats; assay type: in vivo; conditions: for change in vivo at 0.02 mg/kg / ED50: Rattus norvegicus, iv
Experimental: as §1

5-HT2 receptors = molecular target: T1, 5-HT2 receptors (Rattus norvegicus, UniProt P14842); assay: 3H-spiroperidol binding to 5-HT2 receptors; conditions: rat whole cortex, 0.5 nM 3H-spiroperidol, 0.3 μM sulpiride; read-out: 3H-SPI binding 5-HT2 IC50
T1 construct: Rat whole cortex was homogenized by an Ultra Turrax homogenizer; from tissue; host or cells: rat whole cerebral cortex, crude washed membranes
Experimental: ^3 H-spiroperidol binding to 5-HT2 receptors.
Rat whole cortex was homogenized by an Ultra Turrax homogenizer in 100 vol. of 50 mM Tris buffer pH 7.7. The homogenate was centrifuged at 20,000 g for 10 minutes at 4° C. The pellet was rehomogenized in another volume of buffer and centrifuged as mentioned above. The final pellet was rehomogenized in 50 mM Tris buffer pH 7.7 containing 120 mM NaCl, 5 mM KCl, 2 mM CaCl2 and 1 mM MgCl2 (ion mix) in a volume corresponding to 12.5 mg original tissue per ml.
Test drugs were dissolved in water; ^3 H-spiroperidol (NEN, 28-30 Ci/mmol) was diluted in 3 μM sulpiride, and 800 μl membrane suspension were added. Final concentration of ligand and sulpiride were 0.5 nM and 0.3 μM, respectively. The samples were incubated at 37° C. for 10 min. The samples were then filtered under vacuum through Whatman GF/B glass-fiber filters. The tubes were then rinsed with 5 ml incubation buffer, which was poured on the filters. The filters were finally washed twice with 5 ml buffer and placed in counting vials. After addition of 5 ml scintillation fluid (Lumagel) radioactivity was estimated by liquid scintillation counting. Non-specific binding was obtained by adding Mianserin (1 μM) to separate samples. Each drug was tested at least twice at 5 concentrations in triplicate. IC50-values were determined from log concentration-response curves.--The presence of sulpiride excluded binding to dopamine D-2 receptors.

[5] = 5 mg/kg ip, diastolic pressure (DAP), max change within one hour, read-out: Antihypertensive eff. SHR, max eff. in % of 5 mg/kg ip, DAP
[6] = 5 mg/kg ip, systolic pressure (SAP), max change within one hour, read-out: Antihypertensive eff. SHR, max eff. in % of 5 mg/kg ip, SAP
[7] = pithed rats, 0.02 mg/kg, jugular vein, read-out: Effects on pressor response of 5-HT, % eff. of 0.02 mg/kg
[8] = read-out: Antihypertensive eff. SHR, max eff. in % of 5 mg/kg ip, DAP, 5 mg/kg ip, diastolic pressure (DAP), max change within one hour
[9] = read-out: Antihypertensive eff. SHR, max eff. in % of 5 mg/kg ip, SAP, 5 mg/kg ip, systolic pressure (SAP), max change within one hour
[10] = read-out: Effects on pressor response of 5-HT, % eff. of 0.02 mg/kg, pithed rats, 0.02 mg/kg, jugular vein
[11] = 5 mg/kg ip, diastolic pressure (DAP), max change within one hour
[12] = 5 mg/kg ip, systolic pressure (SAP), max change within one hour
[13] = pithed rats, 0.02 mg/kg, jugular vein

T1 sequence (P14842 whole entry): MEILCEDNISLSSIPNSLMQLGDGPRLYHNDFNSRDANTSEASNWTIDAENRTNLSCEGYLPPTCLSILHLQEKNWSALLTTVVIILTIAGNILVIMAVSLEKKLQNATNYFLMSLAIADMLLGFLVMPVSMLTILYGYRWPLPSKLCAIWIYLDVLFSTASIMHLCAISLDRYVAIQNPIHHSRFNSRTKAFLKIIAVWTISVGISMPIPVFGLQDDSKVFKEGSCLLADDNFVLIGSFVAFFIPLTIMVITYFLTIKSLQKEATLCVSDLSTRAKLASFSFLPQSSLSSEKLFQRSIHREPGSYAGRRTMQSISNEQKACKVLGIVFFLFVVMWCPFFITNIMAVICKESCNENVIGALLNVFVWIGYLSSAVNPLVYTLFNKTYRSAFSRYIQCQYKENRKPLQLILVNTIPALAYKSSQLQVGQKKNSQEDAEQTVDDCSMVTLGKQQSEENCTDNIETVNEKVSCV

Structure (SMILES) | ED50 [1] [µmol/kg] | ED50 [3] [µmol/kg] | change in vivo at 5 mg/kg [2, 8] [%] | change in vivo at 5 mg/kg [2, 9] [%] | change in vivo at 0.02 mg/kg (5-HT pressor responses; [10]) [%] | IC50 (5-HT2 receptors) [nM] | also measured
O=C1OCCN1CCCN1CCN([C@@H]2C[C@@H](c3ccc(F)cc3)c3ccc(F)cc32)CC1 (relative stereo) [compound 15] | 39 | 0.31 |  |  |  |  | change in vivo at 5 mg/kg [2, 5]: -18%; change in vivo at 5 mg/kg [2, 6]: -12%; change in vivo at […] [4]: -7%; change in vivo at 0.02 mg/kg (5-HT pressor responses; [7]): -31%
O=C(c1ccc(F)cc1)C1CCN(CCn2c(=O)[nH]c3ccccc3c2=O)CC1 [Ketanserin, reference compound] | 101 | 0.58 | -24 | -32 | -46 |  | ED10 ([2]; read-out: Antihypertensive eff. SHR, ED10 DAP): 1.2 µmol/kg; ED10 ([2]; read-out: Antihypertensive eff. SHR, ED10 SAP): 1.6 µmol/kg; ED50 [4]: 3.6 µmol/kg; ED50 (5-HT pressor responses; read-out: Effects on pressor response of 5-HT, ED50, pithed rats, jugular vein): 0.033 µmol/kg
O=C1NCCN1CCN1CCN([C@@H]2C[C@@H](c3ccc(F)cc3)c3ccc(C(F)(F)F)cc32)CC1 (relative stereo) [compound 6] | 1.8 | 0.29 | -14 | -10 | -52 | 9.9 | 
CC(C)N1CCN(CCN2CCN([C@@H]3C[C@@H](c4ccc(F)cc4)c4ccc(F)cc43)CC2)C1=O (relative stereo) [compound 13] | > 73 | 0.11 | -5 | -5 | -79 | 5.2 | peripheral or central action ([2]; in words): marked central effects
Fc1ccc([C@@H]2C[C@@H](N3CCN(CCN4CCNC4=S)CC3)c3ccccc32)cc1 (relative stereo) [compound 27, Trans-1-[3-(4-fluorophenyl)-indan-1-yl]-4-[2-(imidazolidin-2-thion-1-yl)ethyl]piperazine] | > 61 | 0.48 | -29 | -18 | -71 | 4.7 | 
O=C1NCCN1CCN1CCN([C@@H]2C[C@@H](c3ccc(F)cc3)c3ccc(F)cc32)CC1 (single isomer, unassigned) [-2] |  |  |  |  | 2 | 320 | MePh antg. ED50 [1]: > 61 µmol/kg; Antihypertensive eff. SHR, max eff. in % of 5 mg/kg ip, DAP [2, 11]: +4%; Antihypertensive eff. SHR, max eff. in % of 5 mg/kg ip, SAP [2, 12]: +6%; 1-5-HTP-antg. ED50 ([3]; s.c.): 20 µmol/kg; Effects on pressor response of 5-HT, ED50 (5-HT pressor responses; pithed rats, jugular vein): 1.43 µmol/kg
CN1CCC(CCN2CCN([C@H]3C[C@H](c4ccc(F)cc4)c4ccccc43)CC2)C1=O (relative stereo) [compound 23] | > 61 | 1.4 |  |  |  | 16 | Antihypertensive eff. SHR, max eff. in % of 5 mg/kg ip, DAP [2, 11]: -43%; Antihypertensive eff. SHR, max eff. in % of 5 mg/kg ip, SAP [2, 12]: -31%; Effects on pressor response of 5-HT, % eff. of 0.02 mg/kg (5-HT pressor responses; [13]): -38%
O=C1NCCCN1CCN1CCN([C@@H]2C[C@@H](c3ccc(F)cc3)c3ccc(F)cc32)CC1 (relative stereo) [compound 25] | > 59 | 1.2 |  |  | -60 | 12 | Antihypertensive eff. SHR, max eff. in % of 5 mg/kg ip, SAP/DAP (inactive) ([2]; 5 mg/kg ip): I
CN1CCN(CCN2CCN([C@@H]3C[C@@H](c4ccc(F)cc4)c4ccccc43)CC2)C1=O (relative stereo) [compound 11] | > 80 | 1.4 | -8 | -6 | -81 | 13 | 
O=C1CCCN1CCN1CCN([C@@H]2C[C@@H](c3ccc(F)cc3)c3ccc(F)cc32)CC1 (relative stereo) [compound 18] | 18 | 0.76 |  |  | -67 | 12 | Antihypertensive eff. SHR, max eff. in % of 5 mg/kg ip, SAP/DAP (inactive) ([2]; 5 mg/kg ip): I
O=C1NCCN1CCN1CCN([C@@H]2C[C@@H](c3ccc(F)cc3)c3ccc(Cl)cc32)CC1 (single isomer, unassigned) [-20] |  | < 8.4 |  |  |  |  | MePh antg. ED50 [1]: > 67 µmol/kg; Antihypertensive eff. SHR, max eff. in % of 5 mg/kg ip, DAP [2, 11]: -16%; Antihypertensive eff. SHR, max eff. in % of 5 mg/kg ip, SAP [2, 12]: -7%; Effects on pressor response of Phenylephrine, % eff. of […] ([4]; pithed rats, jugular vein): +21%; Effects on pressor response of 5-HT, % eff. of 0.02 mg/kg (5-HT pressor responses; [13]): -11%
O=C1OCCN1CCN1CCN([C@@H]2C[C@@H](c3ccc(F)cc3)c3ccccc32)CC1 (relative stereo) [compound 7] | > 83 | 2.7 |  |  |  |  | change in vivo at 5 mg/kg [2, 5]: -19%; change in vivo at 5 mg/kg [2, 6]: -15%; change in vivo at […] [4]: -18%; change in vivo at 0.02 mg/kg (5-HT pressor responses; [7]): -4%
O=C1OCCN1CCN1CCN([C@@H]2C[C@@H](c3ccc(F)cc3)c3ccc(F)cc32)CC1 (relative stereo) [compound 8] | 18 | 1.3 |  |  |  |  | change in vivo at 5 mg/kg [2, 5]: -26%; change in vivo at 5 mg/kg [2, 6]: -20%; change in vivo at […] [4]: -19%; ED50 ([4]; pithed rats, jugular vein): 4.35 µmol/kg; Phenylephr. antg./5-HT antg. (ratio) ([4]; pithed rats, ratio of phenylephrine ED50 to 5-HT ED50): 52; change in vivo at 0.02 mg/kg (5-HT pressor responses; [7]): -40%; ED50 (5-HT pressor responses; pithed rats, jugular vein, read-out: Effects on pressor response of 5-HT, ED50): 0.084 µmol/kg
O=c1[nH]c2ccccc2c(=O)n1CCN1CCN([C@H]2C[C@H](c3ccc(F)cc3)c3ccccc32)CC1 (relative stereo) [compound 19] | > 70 |  |  |  |  |  | Antihypertensive eff. SHR, max eff. in % of 5 mg/kg ip, DAP [2, 11]: -27%; Antihypertensive eff. SHR, max eff. in % of 5 mg/kg ip, SAP [2, 12]: -22%; Effects on pressor response of Phenylephrine, % eff. of […] ([4]; pithed rats, jugular vein): -42%; Effects on pressor response of 5-HT, % eff. of 0.02 mg/kg (5-HT pressor responses; [13]): -35%
Fc1ccc([C@@H]2C[C@@H](N3CCN(CCN4CCCNC4=S)CC3)c3cc(F)ccc32)cc1 (relative stereo) [compound 26] |  | 0.11 | -19 | -13 | -67 | 7.7 | 
CC(C)c1ccc2c(c1)[C@H](N1CCN(CCN3CCNC3=O)CC1)C[C@H]2c1ccc(F)cc1 (relative stereo) [compound 5] | 24 | 1.7 |  |  |  |  | change in vivo at 5 mg/kg [2, 5]: -10%; change in vivo at 5 mg/kg [2, 6]: -9%; change in vivo at […] [4]: -33%; change in vivo at 0.02 mg/kg (5-HT pressor responses; [7]): -6%
